# Patent US9115129B2, “Substituted pyrido[2,3-B]pyrazines as IP receptor agonists” (Novartis AG, priority 2012, dated 2015)
# Molecular target: T1, IP receptor (Homo sapiens, UniProt P43119)
# T1 construct: expressed in transfected cells; host or cells: CHO cells stably expressing the IP receptor (CHO-IP)
# Assay: cAMP accumulation in CHO cells stably expressing the IP receptor (CHO-IP), Perkin Elmer AlphaScreen assay
# Assay type: cell-based
# Details: agonist activity, 1 hour at room temperature
# Description: Activity of compounds at the IP receptor (IP receptor) is assessed by measuring cAMP accumulation in CHO cells stably expressing the IP receptor (CHO-IP) using the Perkin Elmer AlphaScreen assay. This technology measures the endogenous production of cAMP, in a non-radioactive luminescence proximity homogenous assay. A biological reaction occurs between streptavidin coated donor beads, biotinylated cAMP and anti-cAMP acceptor beads, bringing the donor and acceptor beads close enough together so that upon excitation a fluorescence signal is produced. On production of endogenous cAMP, competition between the biotinylated cAMP and cellular-derived cAMP causes a reduction in the fluorescent signal. The reduction in signal is proportional to the amount of cAMP being produced, thus it is possible to quantify the amount of cAMP being produced on stimulation with agonist.
# Test and reference compounds are prepared at 100× [final] in 100% DMSO, and diluted 1:3 using a Biomek Fx (Beckman Coulter). This is followed by an intermediate dilution to give 5× [final] in assay buffer (HBSS containing 5 mM HEPES, 0.1% (w/v) BSA). 5 μL of 5× [final] test compounds, reference compounds and buffer/DMSO control are then transferred to a 384-well white OptiPlate, containing 20 μL CHO-IP cell suspension (15,000 cells/well, prepared from frozen), and plate is incubated at room temperature for 1 hour. A cAMP standard curve is constructed for each experiment (concentration range of 10000 nM to 0.001 nM, in assay buffer) and 25 μL of each concentration added to the last two columns of the assay plate. The incubation is terminated by the addition of lysis buffer (dH2O; 0.3% (v v^−1) Tween-20) containing 20 units mL^−1 streptavidin coated donor beads and biotinylated cAMP (pre-incubated for 30 minutes) and 20 units mL^−1 anti-cAMP acceptor beads, which are added to the lysis buffer just before addition to the assay plate. The assay plate is then incubated at room temperature in the dark, for 60 minutes with gentle shaking, and read on the Envision plate reader (Perkin Elmer).
# The raw data of the reference compounds, test compounds and controls are converted into cAMP concentrations, using the cAMP standard curve, in Graph Pad Prism (Graph Pad Software Inc). EC50 as well as maximal values of the agonist curves are determined using a 4-parameter logistic equation. The % maximum response values of all test compounds are determined using the top of the treprostinil concentration-response curve.
# T1 sequence (P43119 whole entry): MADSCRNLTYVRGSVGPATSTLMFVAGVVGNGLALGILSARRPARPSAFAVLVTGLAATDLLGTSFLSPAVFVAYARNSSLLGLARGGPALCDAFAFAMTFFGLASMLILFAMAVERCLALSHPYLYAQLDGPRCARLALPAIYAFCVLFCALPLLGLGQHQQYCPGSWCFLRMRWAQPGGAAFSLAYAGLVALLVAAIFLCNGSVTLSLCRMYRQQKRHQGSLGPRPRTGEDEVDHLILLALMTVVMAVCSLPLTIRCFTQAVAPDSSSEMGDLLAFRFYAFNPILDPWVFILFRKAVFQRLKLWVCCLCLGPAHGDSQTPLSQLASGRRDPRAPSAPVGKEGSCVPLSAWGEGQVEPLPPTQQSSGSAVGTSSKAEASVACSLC
row,SMILES,EC50 [nM]
1,"COC1CCN(CCCCCCC(=O)O)c2nc(-c3ccc(C)cc3)c(-c3ccc(C)cc3)nc21 (racemic) [Example 3.1, rac-7-(8-Methoxy-2,3-di-p-tolyl-7,8-dihydropyrido[2,3-b]pyrazin-5(6H)-yl)heptanoic acid]",0.8
2,"COC1(C)CCN(CCCCCCC(=O)O)c2nc(-c3ccc(C)cc3)c(-c3ccc(C)cc3)nc21 (racemic) [Example 15, rac-7-(8-Methoxy-8-methyl-2,3-di-p-tolyl-7,8-dihydropyrido[2,3-b]pyrazin-5(6H)-yl)heptanoic acid]",0.3
3,"Cc1ccc(-c2nc3c(nc2-c2ccc(C)cc2)N(CCCCC(O)CC(=O)O)CCC3)cc1 (racemic) [Example 17, rac-7-(2,3-Di-p-tolyl-7,8-dihydropyrido[2,3-b]pyrazin-5(6H)-yl)-3-hydroxyheptanoic acid]",1.8
4,"Cc1ccc(-c2nc3c(nc2-c2ccc(C)cc2)N(CCCCCCC(=O)O)C(=O)C(C(C)(C)O)C3)cc1 (single isomer, unassigned) [1.1(i), (R)-7-(7-(2-hydroxypropan-2-yl)-6-oxo-2,3-di-p-tolyl-7,8-dihydropyrido[2,3-b]pyrazin-5(6H)-yl)heptanoic acid or (S)-7-(7-(2-hydroxypropan-2-yl)-6-oxo-2,3-di-p-tolyl-7,8-dihydropyrido[2,3-b]pyrazin-5(6H)-yl)heptanoic acid]",0.3
5,"Cc1ccc(-c2nc3c(nc2-c2ccc(C)cc2)N(CCCCCCC(=O)O)C(=O)C(C(C)(C)O)C3)cc1 (single isomer, unassigned) [1.1(ii), (R)-7-(7-(2-hydroxypropan-2-yl)-6-oxo-2,3-di-p-tolyl-7,8-dihydropyrido[2,3-b]pyrazin-5(6H)-yl)heptanoic acid or (S)-7-(7-(2-hydroxypropan-2-yl)-6-oxo-2,3-di-p-tolyl-7,8-dihydropyrido[2,3-b]pyrazin-5(6H)-yl)heptanoic acid]",0.6
6,"CCC1CCc2nc(-c3ccc(C)cc3)c(-c3ccc(C)cc3)nc2N1CCCCCCC(=O)O (single isomer, unassigned) [2.3(i), (R)-7-(6-Ethyl-2,3-di-p-tolyl-7,8-dihydropyrido[2,3-b]pyrazin-5(6H)-yl)heptanoic acid or (S)-7-(6-Ethyl-2,3-di-p-tolyl-7,8-dihydropyrido[2,3-b]pyrazin-5(6H)-yl)heptanoic acid]",4.8
7,"CCC1CCc2nc(-c3ccc(C)cc3)c(-c3ccc(C)cc3)nc2N1CCCCCCC(=O)O (single isomer, unassigned) [2.3(ii), (R)-7-(6-Ethyl-2,3-di-p-tolyl-7,8-dihydropyrido[2,3-b]pyrazin-5(6H)-yl)heptanoic acid or (S)-7-(6-Ethyl-2,3-di-p-tolyl-7,8-dihydropyrido[2,3-b]pyrazin-5(6H)-yl)heptanoic acid]",0.3
8,"Cc1ccc(-c2nc3c(nc2-c2ccc(C)cc2)N(CCCCCCC(=O)O)CC(C(C)(C)O)C3)cc1 (single isomer, unassigned) [9.2(i), (R)-7-(7-(2-hydroxypropan-2-yl)-2,3-di-p-tolyl-7,8-dihydropyrido[2,3-b]pyrazin-5(6H)-yl)heptanoic acid or (S)-7-(7-(2-hydroxypropan-2-yl)-2,3-di-p-tolyl-7,8-dihydropyrido[2,3-b]pyrazin-5(6H)-yl)heptanoic acid]",12.7
9,"Cc1ccc(-c2nc3c(nc2-c2ccc(C)cc2)N(CCCCCCC(=O)O)C(=O)C(O)C3)cc1 (single isomer, unassigned) [11(i), (R)-7-(7-hydroxy-6-oxo-2,3-di-p-tolyl-7,8-dihydropyrido[2,3-b]pyrazin-5(6H)-yl) heptanoic acid or (S)-7-(7-hydroxy-6-oxo-2,3-di-p-tolyl-7,8-dihydropyrido[2,3-b]pyrazin-5(6H)-yl) heptanoic acid]",0.3
10,"Cc1ccc(-c2nc3c(nc2-c2ccc(C)cc2)N(CCCCCCC(=O)O)C(=O)C(O)C3)cc1 (single isomer, unassigned) [11(ii), (R)-7-(7-hydroxy-6-oxo-2,3-di-p-tolyl-7,8-dihydropyrido[2,3-b]pyrazin-5(6H)-yl) heptanoic acid or (S)-7-(7-hydroxy-6-oxo-2,3-di-p-tolyl-7,8-dihydropyrido[2,3-b]pyrazin-5(6H)-yl) heptanoic acid]",0.5
11,"Cc1ccc(-c2nc3c(nc2-c2ccc(C)cc2)N(CCCCCCC(=O)O)C(=O)C(C(C)(C)O)C3)cc1 (single isomer, unassigned) [Example 1.1, rac-7-(7-(2-Hydroxypropan-2-yl)-6-oxo-2,3-di-p-tolyl-7,8-dihydropyrido[2,3-b]pyrazin-5(6H)-yl)heptanoic acid]",0.3
12,"CO[C@@H]1CCN(CCCCCCC(=O)O)c2nc(-c3ccc(C)cc3)c(-c3ccc(C)cc3)nc21 (single isomer, unassigned) [Example 3.2, (R)-7-(8-methoxy-2,3-di-p-tolyl-7,8-dihydropyrido[2,3-b]pyrazin-5(6H)-yl)heptanoic acid or (S)-7-(8-methoxy-2,3-di-p-tolyl-7,8-dihydropyrido[2,3-b]pyrazin-5(6H)-yl)heptanoic acid]",13.6
13,"CO[C@@H]1CCN(CCCCCCC(=O)O)c2nc(-c3ccc(C)cc3)c(-c3ccc(C)cc3)nc21 (single isomer, unassigned) [Example 3.3, (R)-7-(8-methoxy-2,3-di-p-tolyl-7,8-dihydropyrido[2,3-b]pyrazin-5(6H)-yl)heptanoic acid or (S)-7-(8-methoxy-2,3-di-p-tolyl-7,8-dihydropyrido[2,3-b]pyrazin-5(6H)-yl)heptanoic acid]",2.3
14,"Cc1ccc(-c2nc3c(nc2-c2ccc(C)cc2)N(CCCCCCC(=O)NS(C)(=O)=O)CCC3O)cc1 (single isomer, unassigned) [Example 13.1, (R or S)-7-(8-Hydroxy-2,3-di-p-tolyl-7,8-dihydropyrido[3,2-b]pyrazin-5(6H)-yl)-N-(methylsulfonyl)heptanamide]",28.6
15,"Cc1ccc(-c2nc3c(nc2-c2ccc(C)cc2)N(CCCCCCC(=O)NS(=O)(=O)Cc2ccccc2)CCC3O)cc1 (single isomer, unassigned) [Example 13.2, (R)—N-(benzylsulfonyl)-7-(8-hydroxy-2,3-di-p-tolyl-7,8-dihydropyrido[3,2-b]pyrazin-5(6H)-yl)heptanamide or (S)—N-(benzylsulfonyl)-7-(8-hydroxy-2,3-di-p-tolyl-7,8-dihydropyrido[3,2-b]pyrazin-5(6H)-yl)heptanamide]",510
16,"Cc1ccc(-c2nc3c(nc2-c2ccc(C)cc2)N(CCCCCCC(=O)NS(=O)(=O)Cc2ccccc2)CCC3O)cc1 (single isomer, unassigned) [Example 13.3, (R)—N-(benzylsulfonyl)-7-(8-hydroxy-2,3-di-p-tolyl-7,8-dihydropyrido[3,2-b]pyrazin-5(6H)-yl)heptanamide or (S)—N-(benzylsulfonyl)-7-(8-hydroxy-2,3-di-p-tolyl-7,8-dihydropyrido[3,2-b]pyrazin-5(6H)-yl)heptanamide]",66.2
17,"COC1(C)CCN(CCCCCCC(=O)O)c2nc(-c3ccc(C)cc3)c(-c3ccc(C)cc3)nc21 (single isomer, unassigned) [Example 15a, (R)-7-(8-Methoxy-8-methyl-2,3-di-p-tolyl-7,8-dihydropyrido[2,3-b]pyrazin-5(6H)-yl)heptanoic acid or (S)-7-(8-Methoxy-8-methyl-2,3-di-p-tolyl-7,8-dihydropyrido[2,3-b]pyrazin-5(6H)-yl)heptanoic acid]",1.1
